Measurements from patent US20080311231A1, “Broad Spectrum Non-Traditional Preservative System” (priority 2005, published 2008).

What was measured:
Assay type in all cases: cell-based
P. aeruginosa [1] = assay: Preservative activity in cream, Method A inoculum (text of Example 4); settings: 0.5% Octanediol; organism at 10^5 cfu/gm (so in the source)
Experimental: (§1) Method of evaluation—Method A: 500 μl or 250 μl of each of the following preservatives was added to 49.5/49.75 gm of the cream base to obtain the desired concentrations for testing as in Table 3, and mixed well. 1.0 gm of this base+preservative formulation was dispensed into several culture tubes and each tube was inoculated with 10 μl of culture containing 10^5 cfu (colony forming units) of test organism. The tubes were incubated at room temperature. After 24 hours the tubes were removed and 9 ml of drug inactivating medium was added and mixed. After making another dilution (1:10) with drug inactivating medium, a 0.5 ml aliquot was subcultured on to a TSA plate. Colony counts were measured after 24 hours incubation at 37° C.
(§2) Evaluation of the synergistic activity of octanediol and AHA combinations against higher concentrations of P. aeruginosa. Since 0.5% Octanediol kills 100% of P. aeruginosa at a concentration of 10^5 cfu/gm, the test was repeated with this organism at 10^7 cfu/gm.

P. aeruginosa [2] = assay: Efficacy of preservatives against higher concentrations of P. aeruginosa (Example 4); settings: 10^7 cfu per gm cream, 37° C.
Experimental: as §1, §2
Method of evaluation: Same as described in Method A except a higher inoculum was used. A 100 μl inoculum containing 10^7 cfu of P. aeruginosa was added to each 1 gm of cream and incubated at 37° C.

C. albicans [3] = assay: Method C, oil/water base incubated at 30° C. (Examples 7 and 8); settings: 10^7 cfu/gm, 24 hours
Experimental: Evaluation of the effect of various preservative compositions incorporated in an oil/water base against C. albicans (yeast) incubated at 30° C. Yeast and fungi grow optimally at 30° C. and therefore the efficacy of the preservative was evaluated at this temperature.
Method of evaluation: Method C: Same as Method B except that incubation was at 30° C. and subculturing is done on Sabouraud agar.
The following preservatives at 1.0% and 0.5% concentrations were added to the cream. C. albicais at 10^7 cfu/gm base was added to the base and incubated at 30° C. for 24 hours.
Efficacy of preservatives incorporated in the oil/water base and inoculated with the yeast C. albicans and fungus Aspergillus niger.
The cream base and the cream containing the preservatives were inoculated with 10^7 cfu of C. albicans/gm and 105 cfu of Aspergillus niger/gm; and incubated at 30° C. for 24 hours and 48 hours.
Method of Evaluation: Testing was done using Method C.

C. albicans [4] = assay: Method B, Symrise oil/water cream base (Examples 5 and 6); settings: for Colony counts (CFU/gm) C. albicans: 0.2% w/w in Symrise oil/water cream, 10^7 CFU/gm
Experimental: Activity of lower concentration of Symdiol™ (0.2% w/w) with organic acids was measured. The cream base used in this study was supplied by Symrise Corporation. This base is an oil/water base. […] Method of evaluation: Method B was used for this test. Method B: Same as described in Method A except a higher inoculum was used. […] Microbial growth measured as CFU was counted after 24 hour incubation at 37° C. The cream base used in this study was supplied by Symrise Corporation. This base is an oil/water base. […] Method of evaluation: Method B was used for this test with C. albicans as test organism.

S. aureus [5] = assay: Preservative activity in cream base, Method A (Example 3); settings: 10^5 cfu inoculum, room temperature, 24 hours
Experimental: as §1
(§3) Result: Preservative activity of various creams utilizing a concentration of test organism of 10^5 cfu/gm and incubation at room temperature is shown in Table 4.

E. coli [6] = assay: as above; settings: 10^5 cfu inoculum, room temperature, 24 hours
Experimental: as §1, §3

C. albicans [7] = assay: as above; settings: 10^5 cfu inoculum, room temperature, 24 hours
Experimental: as §1, §3

S. aureus [8] = assay: Method B, Symrise oil/water cream base (Example 5); settings: 0.2% w/w in Symrise oil/water cream; 10^7 CFU/gm; 37° C., 24 hour
Experimental: (§4) Activity of lower concentration of Symdiol™ (0.2% w/w) with organic acids was measured. The cream base used in this study was supplied by Symrise Corporation. This base is an oil/water base.
(§5) Method of evaluation: Method B was used for this test. Method B: Same as described in Method A except a higher inoculum was used. A 100 μL inoculum containing 10^7 CFU of test organism was added to each 1 gm of cream and incubated at 37° C. Microbial growth measured as CFU was counted after 24 hour incubation at 37° C.

E. coli [9] = assay: Method B, Symrise oil/water cream base (Example 5); settings: 0.2% w/w in Symrise oil/water cream; 10^7 CFU/gm; 37° C., 24 hour
Experimental: as §4, §5

P. aeruginosa [10] = assay: Method B, Symrise oil/water cream base (Example 5); settings: 0.2% w/w in Symrise oil/water cream; 10^7 CFU/gm; 37° C., 24 hour
Experimental: as §4, §5

[11] = printed as 20% (single ingredient)

CCCCCCC(O)CO (stereo not drawn)
kills P. aeruginosa (P. aeruginosa [1]): 100%
Colony counts (CFU/gm) P. aeruginosa (P. aeruginosa [2]; 0.5% w/w in cream): 1.6 × 10^3 CFU/gm
C. albicans (CFU/gm cream) (C. albicans [3]; printed as 30% (single ingredient)): 1.4 × 10^5 CFU/gm cream
C. albicans (CFU/gm cream) (C. albicans [3]; printed as 50% (single ingredient)): 0 CFU/gm cream
Colony counts (CFU/gm) C. albicans (C. albicans [4]; Table 7, Method B): 1.0 × 10^5 CFU/gm
Colony counts (CFU)/gm S. aureus (S. aureus [5]; 0.3% w/w in cream): 4.0 × 10^4 CFU/gm
Colony counts (CFU)/gm S. aureus (S. aureus [5]; 0.5% w/w in cream): 1.5 × 10^3 CFU/gm
Colony counts (CFU)/gm E. coli (E. coli [6]; 0.3% w/w in cream): 5.4 × 10^4 CFU/gm
Colony counts (CFU)/gm E. coli (E. coli [6]; 0.5% w/w in cream): 0 CFU/gm
Colony counts (CFU/gm) C. albicans (C. albicans [7]; 0.3% w/w in cream): 2.0 × 10^5 CFU/gm
Colony counts (CFU/gm) C. albicans (C. albicans [7]; 0.5% w/w in cream): 5.2 × 10^2 CFU/gm

O=C(O)CC(O)(CC(=O)O)C(=O)O [Citric acid]
Colony counts (CFU/gm) P. aeruginosa (P. aeruginosa [2]; 0.2% w/w in cream): 2.5 × 10^6 CFU/gm
Colony counts (CFU)/gm S. aureus (S. aureus [8]): 2.0 × 10^4 CFU/gm
Colony counts (CFU)/gm E. coli (E. coli [9]): 2.0 × 10^6 CFU/gm
Colony counts (CFU/gm) P. aeruginosa (P. aeruginosa [10]): 1.0 × 10^6 CFU/gm
C. albicans (CFU/gm cream) (C. albicans [3]; [11]): 2.5 × 10^6 CFU/gm cream
Colony counts (CFU/gm) C. albicans (C. albicans [4]; 37° C., 24 hour): 2.0 × 10^6 CFU/gm
Colony counts (CFU/gm) C. albicans (C. albicans [4]; Table 7, Method B): 2.0 × 10^6 CFU/gm
activity of the combination against C. albicans in words (conclusion of Example 6) (C. albicans [4]; with a lower concentration of octanediol (0.2% w/w)): enhanced activity
Colony counts (CFU)/gm S. aureus (S. aureus [5]; 0.2% w/w in cream): 5.0 × 10^4 CFU/gm
Colony counts (CFU)/gm E. coli (E. coli [6]; 0.2% w/w in cream): 7.3 × 10^4 CFU/gm
Colony counts (CFU/gm) C. albicans (C. albicans [7]; 0.2% w/w in cream): 1.0 × 10^5 CFU/gm

CC(O)C(=O)O (stereo not drawn) [Lactic acid]
Colony counts (CFU/gm) P. aeruginosa (P. aeruginosa [2]; 0.2% w/w in cream): 2.0 × 10^6 CFU/gm
Colony counts (CFU)/gm S. aureus (S. aureus [8]): 6.0 × 10^4 CFU/gm
Colony counts (CFU)/gm E. coli (E. coli [9]): 1.2 × 10^6 CFU/gm
Colony counts (CFU/gm) P. aeruginosa (P. aeruginosa [10]): 2.0 × 10^6 CFU/gm
C. albicans (CFU/gm cream) (C. albicans [3]; 0.12% (single ingredient)): 4.2 × 10^6 CFU/gm cream
C. albicans (CFU/gm cream) (C. albicans [3]; [11]): 5 × 10^6 CFU/gm cream
Colony counts (CFU/gm) C. albicans (C. albicans [4]; 37° C., 24 hour): 2.0 × 10^6 CFU/gm
Colony counts (CFU/gm) C. albicans (C. albicans [4]; Table 7, Method B): 2.0 × 10^6 CFU/gm
Colony counts (CFU)/gm S. aureus (S. aureus [5]; 0.2% w/w in cream): 3.0 × 10^3 CFU/gm
Colony counts (CFU)/gm E. coli (E. coli [6]; 0.2% w/w in cream): 2.3 × 10^4 CFU/gm
Colony counts (CFU/gm) C. albicans (C. albicans [7]; 0.2% w/w in cream): 1.5 × 10^4 CFU/gm
